Laboratory results reported in ChEMBL document CHEMBL3769369, “Ligand-based modeling of diverse aryalkylamines yields new potent P-glycoprotein inhibitors” (Eur J Med Chem, 2016).

What was measured:
[1] = Cytotoxicity against human fibroblast cells assessed as viable cells at 50 uM by trypan blue staining based assay; assay type: cell-based; conditions: read-out: Activity
MCF7 [2] = assay: Cytotoxicity against human MCF7 cells assessed as viable cells at 50 uM by trypan blue staining based assay; assay type: functional; conditions: read-out: Activity
[3] = Inhibition of P-gp in human MCF7/D70 cells assessed as decrease in doxorubicin IC50 at 50 uM after 72 hrs by MTT assay (Rvb doxorubicin alone IC50 = 0.906 +/- 0.02 uM); assay type: cell-based; conditions: MCF7/D70, 72 h
[4] = Cytotoxicity against human fibroblast cells assessed as viable cells at 10 uM by trypan blue staining based assay; assay type: cell-based; conditions: read-out: Activity
MCF7 [5] = assay: Cytotoxicity against human MCF7 cells assessed as viable cells at 10 uM by trypan blue staining based assay; assay type: functional; conditions: read-out: Activity
[6] = Inhibition of P-gp in human MCF7/D70 cells assessed as decrease in doxorubicin IC50 at 10 uM after 72 hrs by MTT assay (Rvb doxorubicin alone IC50 = 0.906 +/- 0.02 uM); assay type: cell-based; conditions: MCF7/D70, 72 h
[7] = Inhibition of P-gp in human MCF7/D70 cells assessed as decrease in doxorubicin IC50 at 1 uM after 72 hrs by MTT assay (Rvb doxorubicin alone IC50 = 0.906 +/- 0.02 uM); assay type: cell-based; conditions: MCF7/D70, 72 h

## COc1ccc(C2NC(C(=O)O)Cc3c2[nH]c2ccccc32)cc1OC (centres undefined)
[1]
  viability at 50 µM: 100%
MCF7 [2]
  viability at 50 µM: 92%
[3]
  IC50: 1.18 µM
[4]
  viability at 10 µM: 92%
MCF7 [5]
  viability at 10 µM: 89%

## CCCC(=O)N(C)C1=Nc2ccc(Cl)cc2C(c2ccccc2)=[N+]([O-])C1
[1]
  viability at 50 µM: 68%
MCF7 [2]
  viability at 50 µM: 70%
[3]
  IC50: 0.49 µM
[4]
  viability at 10 µM: 100%
MCF7 [5]
  viability at 10 µM: 95%
[6]
  IC50: 0.38 µM
[7]
  IC50: 0.39 µM

## CCC1=C(CC2NCCc3ccccc32)CC2c3cc(OC)c(OC)cc3CCN2C1 (centres undefined)
[1]
  viability at 50 µM: 16%
MCF7 [2]
  viability at 50 µM: 5%
[4]
  viability at 10 µM: 46%
MCF7 [5]
  viability at 10 µM: 31%

## CCN(CC)CCC(=O)NC1c2ccc(Cl)cc2Oc2c(C)cccc21 (centres undefined)
[1]
  viability at 50 µM: 13%
MCF7 [2]
  viability at 50 µM: 9%
[4]
  viability at 10 µM: 100%
MCF7 [5]
  viability at 10 µM: 100%

## Cc1nn(C(=O)Cc2ccccc2)c2c1C(c1ccc(O)cc1)SC(=N)N2 (centres undefined)
[1]
  viability at 50 µM: 63%
MCF7 [2]
  viability at 50 µM: 55%
[3]
  IC50: 2.07 µM
[4]
  viability at 10 µM: 100%
MCF7 [5]
  viability at 10 µM: 96%

## CCC(C)N1CN(c2ccccc2)C2(CCN(CC3COc4ccccc4O3)CC2)C1=O (centres undefined)
[1]
  viability at 50 µM: 70%
MCF7 [2]
  viability at 50 µM: 11%
[4]
  viability at 10 µM: 100%
MCF7 [5]
  viability at 10 µM: 93%

## CN/N=C(\C)C(CN1CCCCC1)C(C1=C(O)c2ccccc2OC1)c1ccccc1 (centres undefined)
[1]
  viability at 50 µM: 75%
MCF7 [2]
  viability at 50 µM: 97%
[3]
  IC50: 1.08 µM
[4]
  viability at 10 µM: 100%
MCF7 [5]
  viability at 10 µM: 100%

## O=C1CN(CCN2CC(=O)N(Cc3ccccc3)C(=O)C2)CC(=O)N1Cc1ccccc1
[1]
  viability at 50 µM: 82%
MCF7 [2]
  viability at 50 µM: 69%
[3]
  IC50: 0.24 µM
[4]
  viability at 10 µM: 100%
MCF7 [5]
  viability at 10 µM: 76%
[6]
  IC50: 0.85 µM

## CC1(CN2CCCC2)CCC(NC(=O)C(c2ccccc2)c2ccccc2)C(C)(C)O1 (centres undefined)
[1]
  viability at 50 µM: 54%
MCF7 [2]
  viability at 50 µM: 51%
[3]
  IC50: 0.14 µM
[4]
  viability at 10 µM: 88%
MCF7 [5]
  viability at 10 µM: 100%
[6]
  IC50: 1.73 µM

## CCCNCCC(O)c1cc(C(F)(F)F)nc2c(C(F)(F)F)cccc12 (centres undefined)
[1]
  viability at 50 µM: 19%
MCF7 [2]
  viability at 50 µM: 6%
[4]
  viability at 10 µM: 67%
MCF7 [5]
  viability at 10 µM: 9%

## CCN(Cc1ccccc1)C(=O)C1CCN(Cc2c[nH]c3ccccc23)CC1
[1]
  viability at 50 µM: 21%
MCF7 [2]
  viability at 50 µM: 13%
[3]
  IC50: 0.62 µM
[4]
  viability at 10 µM: 56%
MCF7 [5]
  viability at 10 µM: 48%

## ClCCNCc1cccc(Nc2ccnc3cc(Cl)ccc23)c1
[1]
  viability at 50 µM: 48%
MCF7 [2]
  viability at 50 µM: 15%
[4]
  viability at 10 µM: 96%
MCF7 [5]
  viability at 10 µM: 86%

## N=c1[nH]c(=O)n(CCCCOc2ccccc2)cc1-c1ccc(Cl)c(Cl)c1
[1]
  viability at 50 µM: 56%
MCF7 [2]
  viability at 50 µM: 58%
[3]
  IC50: 0.24 µM
[4]
  viability at 10 µM: 100%
MCF7 [5]
  viability at 10 µM: 77%
[6]
  IC50: 0.57 µM

## CC1CN(CCOC(=O)C(c2ccccc2)C2C=CCCC2)C(C)(C)C1 (centres undefined)
[1]
  viability at 50 µM: 36%
MCF7 [2]
  viability at 50 µM: 61%
[4]
  viability at 10 µM: 84%
MCF7 [5]
  viability at 10 µM: 93%

## CN1CN(c2ccccc2)C2(CCN(CCc3cc4ccccc4o3)CC2)C1=O
[1]
  viability at 50 µM: 21%
MCF7 [2]
  viability at 50 µM: 14%
[4]
  viability at 10 µM: 92%
MCF7 [5]
  viability at 10 µM: 31%

## CC1(C)CCN(CCOC(=O)C(c2ccccc2)C2C=CCCC2)C1 (centres undefined)
[1]
  viability at 50 µM: 59%
MCF7 [2]
  viability at 50 µM: 53%
[3]
  IC50: 0.55 µM
[4]
  viability at 10 µM: 100%
MCF7 [5]
  viability at 10 µM: 98%

## O=C1NCN(c2ccccc2)C12CCN(CCCS(=O)(=O)c1ccccc1)CC2
[1]
  viability at 50 µM: 100%
MCF7 [2]
  viability at 50 µM: 80%
[3]
  IC50: 0.24 µM
[4]
  viability at 10 µM: 100%
MCF7 [5]
  viability at 10 µM: 77%
[6]
  IC50: 1.14 µM

## COc1cc2c(cc1OC)C1C(CO)c3ccc4c(c3CN1CC2)OCO4 (centres undefined)
[1]
  viability at 50 µM: 75%
MCF7 [2]
  viability at 50 µM: 72%
[3]
  IC50: 0.57 µM
[4]
  viability at 10 µM: 100%
MCF7 [5]
  viability at 10 µM: 90%

## COc1cc(C2CNCc3cc(OC)c(O)cc32)ccc1O (centres undefined)
[1]
  viability at 50 µM: 90%
MCF7 [2]
  viability at 50 µM: 73%
[3]
  IC50: 0.61 µM
[4]
  viability at 10 µM: 100%
MCF7 [5]
  viability at 10 µM: 76%
[6]
  IC50: 0.84 µM

## NC(c1ccc2c(c1)OCO2)C(O)c1ccc2c(c1)OCO2 (centres undefined)
[1]
  viability at 50 µM: 82%
MCF7 [2]
  viability at 50 µM: 72%
[3]
  IC50: 2.52 µM
[4]
  viability at 10 µM: 100%
MCF7 [5]
  viability at 10 µM: 74%

## COc1cc2c(cc1OC)C(c1ccc(O)c(O)c1)CNC2 (centres undefined)
[1]
  viability at 50 µM: 97%
MCF7 [2]
  viability at 50 µM: 97%
[3]
  IC50: 0.8 µM
[4]
  viability at 10 µM: 100%
MCF7 [5]
  viability at 10 µM: 93%

## COc1ccc(Nc2ccnc3cc(Cl)ccc23)cc1CNCC(C)C
[1]
  viability at 50 µM: 17%
MCF7 [2]
  viability at 50 µM: 6%
[4]
  viability at 10 µM: 12%
MCF7 [5]
  viability at 10 µM: 26%

## Cc1ccc(N2CCN(CCCOC(=O)Nc3cccc4ccccc34)CC2)cc1
[1]
  viability at 50 µM: 89%
MCF7 [2]
  viability at 50 µM: 70%
[3]
  IC50: 0.83 µM
[4]
  viability at 10 µM: 89%
MCF7 [5]
  viability at 10 µM: 93%

## Fc1ccc(N/C2=N/CC/N=C(/Nc3ccc(F)cc3)SS2)cc1
[1]
  viability at 50 µM: 57%
MCF7 [2]
  viability at 50 µM: 58%
[3]
  IC50: 0.19 µM
[4]
  viability at 10 µM: 100%
MCF7 [5]
  viability at 10 µM: 92%
[6]
  IC50: 0.32 µM
[7]
  IC50: 0.32 µM

## COc1cc(-n2c(CCc3nc(-c4ccc(Cl)cc4)no3)n[nH]c2=S)c(OC)cc1Cl
[1]
  viability at 50 µM: 61%
MCF7 [2]
  viability at 50 µM: 71%
[3]
  IC50: 0.3 µM
[4]
  viability at 10 µM: 74%
MCF7 [5]
  viability at 10 µM: 86%
[6]
  IC50: 0.31 µM
[7]
  IC50: 0.94 µM

## Cc1ccc2c(c1)C(NC(Cc1ccccc1)C(=O)O)C(Cl)C(=O)O2 (centres undefined)
[1]
  viability at 50 µM: 100%
MCF7 [2]
  viability at 50 µM: 74%
[3]
  IC50: 0.85 µM
[4]
  viability at 10 µM: 94%
MCF7 [5]
  viability at 10 µM: 75%

## COc1cc(C2CNCc3cc(O)c(OC)cc32)ccc1O (centres undefined)
[1]
  viability at 50 µM: 100%
MCF7 [2]
  viability at 50 µM: 80%
[3]
  IC50: 0.83 µM
[4]
  viability at 10 µM: 100%
MCF7 [5]
  viability at 10 µM: 75%

## O=C1OCCN1N1C(=O)CC2(CCN(Cc3ccccc3)CC2)C1=O
[1]
  viability at 50 µM: 100%
MCF7 [2]
  viability at 50 µM: 89%
[3]
  IC50: 0.51 µM
[4]
  viability at 10 µM: 100%
MCF7 [5]
  viability at 10 µM: 95%

## C[N+]1(CCOC(=O)C(c2ccccc2)C2C=CCC2)CCCC12CCCCC2 (centres undefined)
[1]
  viability at 50 µM: 81%
MCF7 [2]
  viability at 50 µM: 75%
[3]
  IC50: 1.55 µM
[4]
  viability at 10 µM: 100%
MCF7 [5]
  viability at 10 µM: 89%

## CN(C)C1C(c2ccccc2)S(=O)(=O)C1C1CS(=O)(=O)C1c1ccccc1 (centres undefined)
[1]
  viability at 50 µM: 19%
MCF7 [2]
  viability at 50 µM: 5%
[4]
  viability at 10 µM: 39%
MCF7 [5]
  viability at 10 µM: 68%

## CC1CN(CC2COc3ccccc3O2)C(C)CN1CC1COc2ccccc2O1 (centres undefined)
[1]
  viability at 50 µM: 77%
MCF7 [2]
  viability at 50 µM: 53%
[3]
  IC50: 0.58 µM
[4]
  viability at 10 µM: 100%
MCF7 [5]
  viability at 10 µM: 80%
[6]
  IC50: 1.45 µM

## CN1CCc2ccccc2C1Cc1cc(OCc2ccccc2)ccc1N (centres undefined)
[1]
  viability at 50 µM: 16%
MCF7 [2]
  viability at 50 µM: 6%
[4]
  viability at 10 µM: 82%
MCF7 [5]
  viability at 10 µM: 74%

## CC1CN(CCOC(=O)C(c2ccccc2)C2C=CCCC2)CC1C (centres undefined)
[1]
  viability at 50 µM: 100%
MCF7 [2]
  viability at 50 µM: 74%
[3]
  IC50: 2.12 µM
[4]
  viability at 10 µM: 100%
MCF7 [5]
  viability at 10 µM: 89%

## C=CCN1CC[C@]23c4c5ccc(O)c4O[C@H]2C(=O)CC[C@@]3(O)[C@H]1C5 [NALOXONE]
[1]
  viability at 50 µM: 100%
MCF7 [2]
  viability at 50 µM: 67%
[3]
  IC50: 0.36 µM
[4]
  viability at 10 µM: 100%
MCF7 [5]
  viability at 10 µM: 74%
[6]
  IC50: 0.85 µM

## COc1ccc(CCN(C)CCCC(C#N)(c2ccc(OC)c(OC)c2)C(C)C)cc1OC (centres undefined) [VERAPAMIL]
[6]
  IC50: 0.2 µM
